Results published in ChEMBL document CHEMBL4145521, “Regioselective synthesis of 3,4-diaryl-5-unsubstituted isoxazoles, analogues of natural cytostatic combretastatin A4” (Eur J Med Chem, 2018).

Assays:
Type in all cases: functional
CAKI-1 = experiment: Cytotoxicity against human Caki1 cells incubated for 48 hrs by sulforhodamine B assay; settings: CAKI-1, 48 h
SF-268 = experiment: Cytotoxicity against human SF268 cells assessed as cell growth at 1 uM incubated for 48 hrs by sulforhodamine B assay relative to control; settings: SF-268, 48 h, read-out: Activity
A549 = experiment: Cytotoxicity against human A549/ATCC cells assessed as cell growth at 10 uM incubated for 48 hrs by sulforhodamine B assay relative to control; settings: A549, 48 h, read-out: Activity
HCT-116 = experiment: Cytotoxicity against human HCT116 cells incubated for 48 hrs by sulforhodamine B assay; settings: HCT-116, 48 h
HCT-15 = experiment: Cytotoxicity against human HCT15 cells assessed as cell growth at 0.01 uM incubated for 48 hrs by sulforhodamine B assay relative to control; settings: HCT-15, 48 h, read-out: Activity
RPMI-8226 = experiment: Cytotoxicity against human RPMI8226 cells assessed as cell growth at 0.01 uM incubated for 48 hrs by sulforhodamine B assay relative to control; settings: RPMI-8226, 48 h, read-out: Activity
ACHN = experiment: Cytotoxicity against human ACHN cells assessed as cell growth at 100 uM incubated for 48 hrs by sulforhodamine B assay relative to control; settings: read-out: Activity
SK-MEL-2 = experiment: Cytotoxicity against human SK-MEL-2 cells assessed as cell growth at 100 uM incubated for 48 hrs by sulforhodamine B assay relative to control; settings: SK-MEL-2, 48 h, read-out: Activity
NCI-H23 = experiment: Cytotoxicity against human NCI-H23 cells assessed as cell growth at 100 uM incubated for 48 hrs by sulforhodamine B assay relative to control; settings: NCI-H23, 48 h, read-out: Activity
SNB-19 = experiment: Cytotoxicity against human SNB19 cells assessed as cell growth at 10 uM incubated for 48 hrs by sulforhodamine B assay relative to control; settings: SNB-19, 48 h, read-out: Activity
SK-MEL-5 = experiment: Cytotoxicity against human SK-MEL-5 cells assessed as cell growth at 10 uM incubated for 48 hrs by sulforhodamine B assay relative to control; settings: SK-MEL-5, 48 h, read-out: Activity
HOP-62 = experiment: Cytotoxicity against human HOP62 cells incubated for 48 hrs by sulforhodamine B assay; settings: HOP-62, 48 h
Malme-3M = experiment: Cytotoxicity against human MALME-3M cells assessed as cell growth at 10 uM incubated for 48 hrs by sulforhodamine B assay relative to control; settings: read-out: Activity
U-251 = experiment: Cytotoxicity against human U251 cells assessed as cell growth at 0.01 uM incubated for 48 hrs by sulforhodamine B assay relative to control; settings: U-251, 48 h, read-out: Activity
SK-OV-3 = experiment: Cytotoxicity against human SKOV3 cells assessed as cell growth at 100 uM incubated for 48 hrs by sulforhodamine B assay relative to control; settings: SK-OV-3, 48 h, read-out: Activity

Work on `COc1ccc(-c2nocc2-c2cc(OC)c(OC)c(OC)c2)cc1` yielded a GI50 (CAKI-1; read-out: GI50) of 642 nM, an LC50 (CAKI-1; read-out: LC50) of over 100 µM and a TGI (CAKI-1; read-out: TGI) of over 100 µM. The GI50 (CAKI-1; read-out: pGI50 (converted)) was 646 nM, the LC50 (CAKI-1; read-out: pLC50 (converted)) was over 100 µM and the TGI (CAKI-1; read-out: pTGI) was over 100 µM. For the same compound, the growth at 1 µM (SF-268) was 45%, the growth at 10 µM (A549) was 29% and the GI50 (HCT-116; read-out: GI50) was 39 nM. The LC50 (concentration killing 50% of cells) (HCT-116; read-out: LC50) was over 100 µM, the TGI (HCT-116; read-out: TGI) was 14.7 µM and the GI50 (HCT-116; read-out: pGI50 (converted)) was 38.9 nM. For the same compound, the LC50 (concentration killing 50% of cells) (HCT-116; read-out: pLC50 (converted)) was over 100 µM, the TGI (HCT-116; read-out: pTGI (converted)) was 14.8 µM and the growth at 0.01 µM (HCT-15) was 88%. For the same compound, the growth at 0.01 µM (RPMI-8226) was 100%, the growth at 100 µM (ACHN) was -13% and the growth at 100 µM (SK-MEL-2) was -8%. The growth at 100 µM (NCI-H23) was -3%, the growth at 10 µM (SNB-19) was 29% and the growth at 10 µM (SK-MEL-5) was -11%. The GI50 (HOP-62; read-out: GI50) was 259 nM, the LC50 (HOP-62; read-out: LC50) was over 100 µM and the TGI (HOP-62; read-out: TGI) was over 100 µM. The GI50 (HOP-62; read-out: pGI50 (converted)) was 257 nM, the LC50 (HOP-62; read-out: pLC50 (converted)) was over 100 µM and the TGI (HOP-62; read-out: pTGI) was over 100 µM. For the same compound, the growth at 10 µM (Malme-3M) was 60%, the growth at 0.01 µM (U-251) was 99% and the growth at 100 µM (SK-OV-3) was 5%.
